Test results reported in patent US20240376094A2, “SELECTIVE BCL-XL PROTAC COMPOUNDS AND METHODS OF USE” (Les Laboratoires Servier, priority 2021, published 2024).

How the values were obtained:
Format in all cases: cell-based
[1] = system: EBC-1 lung cancer cell line; experiment: EBC-1 cell proliferation, CellTiter-Glo assay; details: Homo sapiens, 120 h; Ebc-1 cell viability, CTG assay, 5 days of treatment; read-out: CTG 5 day Ebc1 GI50
In short: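 CellTiter-Glo read-out after 5-day compound treatment, normalised to untreated cells, with GI50 derived by four-parameter logistic regression. Ten concentrations spanning 0.508 nM–10 μM were added to 1000 EBC-1 cells per well the day after seeding. Assays required at least one cell doubling versus Day 0.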

Bcl-xL = molecular target: T1, Bcl-xL (Homo sapiens, UniProt Q07817); experiment: HCT116 Bcl-xL degradation, capillary-based immunoassay (WES); details: for DC50: HCT116, 24 h, 9-point serial dilution; for remaining activity at 0.01 µM / remaining activity at 0.1 µM: HCT-116, 24 h, % of untreated cells; for remaining activity at 0.01 µM: HCT116, 10 nM; for remaining activity at 0.1 µM: HCT116, 100 nM
T1 construct: Measured levels of Bcl-xL protein of HCT116 cells treated with the tested compounds; host or cells: HCT116
T1 sequence (Q07817 whole entry): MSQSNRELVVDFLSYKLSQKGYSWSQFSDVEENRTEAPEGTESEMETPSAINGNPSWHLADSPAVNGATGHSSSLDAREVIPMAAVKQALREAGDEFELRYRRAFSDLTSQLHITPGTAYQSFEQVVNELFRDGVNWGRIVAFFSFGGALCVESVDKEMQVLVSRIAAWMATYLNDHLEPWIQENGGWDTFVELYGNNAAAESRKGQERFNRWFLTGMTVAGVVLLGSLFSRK
In short: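 Bcl-xL protein level by capillary WES immunoassay in HCT116 lysates, as % of untreated after cofilin normalization. Compound exposure was 24 h at 10 and 100 nM and/or a 9-point series, in quadruplicate. Four-parameter fitting gave the DC50.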

MOLT-4 cells = experiment: MOLT-4 cell viability, MTT assay; details: Homo sapiens, MOLT-4, 48 h
In short: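 MOLT-4 cells in RPMI 1640 with 10% FBS were exposed to compounds for 48 h at 9 concentrations (3.16-fold dilutions, triplicates). After 4 h with MTT and overnight SDS/HCl solubilisation, absorbance was read at 540 nm. IC50 came from four-parameter fits versus control, as the mean of ≥2 independent experiments.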

HiBiT-tagged BCL-xL = molecular target: T2, HiBiT-tagged BCL-xL (Homo sapiens, UniProt Q07817); experiment: NCI-H1650 BCL-xL protein levels, Nano-Glo HiBiT Lytic Detection; details: NCI-H1650 expressing HiBiT-tagged BCL-xL, overnight incubation, read-out: Bcl-xl HIBIT NCIH1650 DC50
T2 construct: expressed in transfected cells; host or cells: NCI-H1650 (ATCC No. CRL-5883), engineered HiBiT cell line
T2 sequence (Q07817 whole entry): as above
In short: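 HiBiT luminescence after cell lysis with LgBiT/furimazine reagent reported BCL-xL levels, expressed relative to untreated wells and fitted with a four-parameter logistic equation. Engineered NCI-H1650 cells were exposed overnight at 37° C to compound at final 0.508 nM-10 μM (10 points, triplicate plates).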

GI50 [1] [nM] | DC50 (Bcl-xL) [nM] | remaining activity at 0.01 µM (Bcl-xL) [%] | remaining activity at 0.1 µM (Bcl-xL) [%] | IC50 (MOLT-4 cells) [nM] | DC50 (HiBiT-tagged BCL-xL) [nM] | SMILES
2 | 0.742 | 52 | 34 | 0.493 | 1 | Cc1ncsc1-c1ccc([C@H](C)NC(=O)[C@@H]2CC(O)CN2C(=O)[C@@H](NC(=O)CCCCCCCCCCCCCCN(C)CCOC23CC4(C)CC(C)(CC(Cn5ncc(-c6ccc(N7CCCc8c7nnc(Nc7nc9ccccc9s7)c8C)nc6C(=O)O)c5C)(C4)C2)C3)C(C)(C)C)cc1 (stereo in doubt) [Example 7, 6-[3-(1,3-benzothiazol-2-ylamino)-4-methyl-6,7-dihydro-5H-pyrido[2,3-c]pyridazin-8-yl]-3-[1-[[3-[2-[[15-[[(1S)-1-[(2S,4R)-4-hydroxy-2-[[(1S)-1-[4-(4-methylthiazol-5-yl)phenyl]ethyl]carbamoyl]pyrrolidine-1-carbonyl]-2,2-dimethyl-propyl]amino]-15-oxo-pentadecyl]-methyl-amino]ethoxy]-5,7-dimethyl-1-adamantyl]methyl]-5-methyl-pyrazol-4-yl]pyridine-2-carboxylic acid]
9 | 0.47 | 7 | 7 | 1.07 | 3 | Cc1ncsc1-c1ccc([C@H](C)NC(=O)C2C[C@@H](O)CN2C(=O)C(NC(=O)CCCCCCC(=O)N2CCN(CC#Cc3ccc(OCCCc4sc(N5CCCc6c5nnc(Nc5nc7ccccc7s5)c6C)nc4C(=O)O)c(F)c3)CC2)C(C)(C)C)cc1 (stereo in doubt) [Example 16, 2-[3-(1,3-benzothiazol-2-ylamino)-4-methyl-6,7-dihydro-5H-pyrido[2,3-c]pyridazin-8-yl]-5-[3-[2-fluoro-4-[3-[4-[8-[[(1S)-1-[(2S,4R)-4-hydroxy-2-[[(1S)-1-[4-(4-methylthiazol-5-yl)phenyl]ethyl]carbamoyl]pyrrolidine-1-carbonyl]-2,2-dimethyl-propyl]amino]-8-oxo-octanoyl]piperazin-1-yl]prop-1-ynyl]phenoxy]propyl]thiazole-4-carboxylic acid]
31 | 0.488 | 32 | 9 | 3.84 | > 1670 | Cc1ncsc1-c1ccc([C@H](C)NC(=O)C2C[C@@H](O)CN2C(=O)C(NC(=O)CCCCCC(=O)N2CCN(CC#Cc3ccc(OCCCc4sc(N5CCCc6c5nnc(Nc5nc7ccccc7s5)c6C)nc4C(=O)O)c(F)c3)CC2)C(C)(C)C)cc1 (stereo in doubt) [Example 17, 2-[3-(1,3-benzothiazol-2-ylamino)-4-methyl-6,7-dihydro-5H-pyrido[2,3-c]pyridazin-8-yl]-5-[3-[2-fluoro-4-[3-[4-[7-[[(1S)-1-[(2S,4R)-4-hydroxy-2-[[(1S)-1-[4-(4-methylthiazol-5-yl)phenyl]ethyl]carbamoyl]pyrrolidine-1-carbonyl]-2,2-dimethyl-propyl]amino]-7-oxo-heptanoyl]piperazin-1-yl]prop-1-ynyl]phenoxy]propyl] thiazole-4-carboxylic acid]
– | 21.2 | – | – | 3.31 | > 1670 | Cc1ncsc1-c1ccc(CNC(=O)[C@@H]2C[C@@H](O)CN2C(=O)[C@@H](NC(=O)C2(F)CC2)C(C)(C)C)c(OCCCCCCCCN(C)CCOC23CC4(C)CC(C)(CC(Cn5ncc(-c6ccc(N7CCCc8c7nnc(Nc7nc9ccccc9s7)c8C)nc6C(=O)O)c5C)(C4)C2)C3)c1 [Example 138, 6-[3-(1,3-benzothiazol-2-ylamino)-4-methyl-6,7-dihydro-5H-pyrido[2,3-c]pyridazin-8-yl]-3-[1-[[3-[2-[8-[2-[[[(2S,4R)-1-[(2S)-2-[(1-fluorocyclopropanecarbonyl)amino]-3,3-dimethyl-butanoyl]-4-hydroxy-pyrrolidine-2-carbonyl]amino]methyl]-5-(4-methylthiazol-5-yl)phenoxy]octyl-methyl-amino]ethoxy]-5,7-dimethyl-1-adamantyl]methyl]-5-methyl-pyrazol-4-yl]pyridine-2-carboxylic acid]
